Assay results reported in publication PMC10986989, “Reciprocal regulation of enterococcal cephalosporin resistance by products of the autoregulated yvcJ-glmR-yvcL operon enhances fitness during cephalosporin exposure” (PLOS Genetics, 2024).

Molecular target: T1, GlmR (Enterococcus faecalis, UniProt A0ACD6TA08)
T1 construct: gene OG1RF_10501
Experiment: thermal shift assay (SYPRO Orange)
Format: binding
Details: 10 uM protein, 1 mM ligand

Structure (SMILES): CC(=O)N[C@H]1[C@@H](OP(=O)(O)OP(=O)(O)OC[C@H]2O[C@@H](n3ccc(=O)[nH]c3=O)[C@H](O)[C@@H]2O)O[C@H](CO)[C@@H](O)[C@@H]1O [UDP-GlcNAc]
- thermal shift: When incubated with UDP-GlcNAc, both YvcJ and GlmR exhibited clear thermal shifts
